Experimental findings from patent publication US5840684A, “Glycopeptide antibiotic derivatives” (Eli Lilly and Company, priority 1995, dated 1998) are described below.

Values after ≈ are worked out from the molar mass of the structure shown. A value given as a limit tells only on which side of the number the result lay.

Test [1] deals with Staphylococcus aureus SA1199B. It is filed as cell-based. As for the experimental part: (§1) The MIC's were determined using a standard broth micro-dilution assay.
Test [2] concerns Staphylococcus aureus S13E. It is filed as cell-based. As for the experimental part: as §1
For test [3], the system named is vancomycin-susceptible enterococci. Nature of the test: broth micro-dilution, mean geometric MIC. It is filed as cell-based, Enterococcus faecium and Enterococcus faecalis. The settings on record: enterococci, 24-hour incubation.
In test [4] the test system is Streptococcus pneumoniae P1. Briefly: broth micro-dilution MIC. Format: cell-based. On the procedure:
(§2) The formula I compounds have in vitro and in vivo activity against Gram-positive pathogenic bacteria. The MIC's were determined using a standard broth micro-dilution assay.

In another test the test system is Entercoccus faecium 180. Briefly: broth micro-dilution MIC. It is filed as cell-based. The following applies: Entercoccus faecium 180. On the procedure: as §2
Test [5] relates to Staphylococcus haemolyticus 105. Briefly: broth micro-dilution MIC. Format: cell-based. On the procedure: as §2
Test [6] deals with Enterococcus gallinarum 245. Nature of the test: broth micro-dilution MIC. It is filed as cell-based. The settings on record: Enterococcus gallinarum 245. On the procedure:
as §2

The subject of test [7] is Staphylococcus haemolyticus 415. Nature of the test: broth micro-dilution MIC. It is filed as cell-based. As for the experimental part:
as §2

Test [8] has as its system Staphylococcus epidermidis 270. Briefly: broth micro-dilution MIC. Format: cell-based. As for the experimental part:
as §2

The subject of another test is Entercoccus faecium 2041. Nature of the test: broth micro-dilution MIC. It is filed as cell-based. The following applies: Entercoccus faecium 2041. As for the experimental part: as §2
For test [9], the system named is vancomycin-resistant enterococci. Briefly: broth micro-dilution, mean geometric MIC. Format: cell-based, Enterococcus faecium and Enterococcus faecalis. The settings on record: enterococci, 24-hour incubation.
In test [10] the test system is Staphylococcus aureus X400. Briefly: broth micro-dilution MIC. Format: cell-based. As for the experimental part: as §1
In test [11] the test system is Streptococcus pyogenes C203. Briefly: broth micro-dilution MIC. It is filed as cell-based. As for the experimental part:
as §1

The test system of test [12] is Staphylococcus aureus 447. Nature of the test: broth micro-dilution MIC. Format: cell-based. As for the experimental part:
as §1

In test [13] the test system is Staphylococcus aureus SA1199. Nature of the test: broth micro-dilution MIC. It is filed as cell-based. As for the experimental part: as §1
Test [14] has as its system Staphylococcus aureus SA1199A. Nature of the test: broth micro-dilution MIC. It is filed as cell-based. On the procedure: as §1
In test [15] the test system is Staphylococcus aureus 446. Briefly: broth micro-dilution MIC. Format: cell-based. As for the experimental part:
as §1

The subject of test [16] is Staphylococcus aureus 491. Briefly: broth micro-dilution MIC. Format: cell-based. As for the experimental part: as §1
Test [17] relates to Entercoccus faecium 180-1. Briefly: broth micro-dilution MIC. Format: cell-based. As for the experimental part: as §1
For test [18], the system named is Staphylococcus aureus X778. Briefly: broth micro-dilution MIC. Format: cell-based. As for the experimental part:
as §1

The subject of a further test is Entercoccus faecium 276. Briefly: broth micro-dilution MIC. It is filed as cell-based. As for the experimental part:
as §1

Test [19] has as its system Staphylococcus aureus 489. Nature of the test: broth micro-dilution MIC. Format: cell-based. On the procedure:
as §1

As for `CNC(CC(C)C)C(=O)NC1C(=O)NC(CC(N)=O)C(=O)NC2C(=O)NC3C(=O)NC(C(=O)NC(C(=O)O)c4cc(O)cc(O)c4-c4cc3ccc4O)C(OC3CC(C)(N)C(O)C(C)O3)c3ccc(c(Cl)c3)Oc3cc2cc(c3OC2OC(CO)C(O)C(O)C2OC2CC(C)(NCc3ccc(OC(=O)c4ccccc4)cc3)C(O)C(C)O2)Oc2ccc(cc2Cl)C1O` (centres unmarked) [Compound 150], the MIC in test [1] was 0.5 µg/mL (≈ 0.277 µM); in test [2], 0.25 µg/mL (≈ 0.139 µM); in test [4], not above 0.06 µg/mL; in the test on Entercoccus faecium 180 it was 0.25 µg/mL (≈ 0.139 µM); in test [5] it was 1 µg/mL (≈ 0.555 µM); in test [6] it was 2 µg/mL (≈ 1.11 µM). Moreover, the MIC is 2 µg/mL (≈ 1.11 µM) in test [7]; 0.25 µg/mL (≈ 0.139 µM) in test [8]; not above 0.06 µg/mL in the test on Entercoccus faecium 2041; not above 0.06 µg/mL in test [10]; not above 0.06 µg/mL in test [11]; 0.5 µg/mL (≈ 0.277 µM) in [12]. In addition, the MIC in test [13] is 1 µg/mL (≈ 0.555 µM); in test [14] it was not above 0.06 µg/mL; in test [15], 1 µg/mL (≈ 0.555 µM); in test [16], not above 0.06 µg/mL; in [17], not above 0.06 µg/mL; in [18], 2 µg/mL (≈ 1.11 µM). In addition, the MIC against Entercoccus faecium 276 was determined as 1 µg/mL (≈ 0.555 µM); in test [19], 0.5 µg/mL (≈ 0.277 µM). The “mean geometric MIC, Vancomycin Sensitive Strains” value in test [3] stood at 0.25 µg/mL. Moreover, the “mean geometric MIC, Vancomycin Resistant Strains” value in [9] was found to be 1.7 µg/mL.

Consider `CNC(CC(C)C)C(=O)NC1C(=O)NC(CC(N)=O)C(=O)NC2C(=O)NC3C(=O)NC(C(=O)NC(C(=O)O)c4cc(O)cc(O)c4-c4cc3ccc4O)C(OC3CC(C)(N)C(O)C(C)O3)c3ccc(c(Cl)c3)Oc3cc2cc(c3OC2OC(CO)C(O)C(O)C2OC2CC(C)(NCc3ccc(S(=O)(=O)N4CCCC4)cc3)C(O)C(C)O2)Oc2ccc(cc2Cl)C1O` (centres unmarked) [Compound 174], for which the minimum inhibitory concentration (MIC) in test [1] was 0.125 µg/mL (≈ 0.0688 µM); in test [2] it was not above 0.06 µg/mL; in [4] it was not above 0.06 µg/mL; against Entercoccus faecium 180, 2 µg/mL (≈ 1.1 µM); in test [5] it was 4 µg/mL (≈ 2.2 µM); in [6], 16 µg/mL (≈ 8.81 µM). The MIC was 16 µg/mL (≈ 8.81 µM) in test [7]; 2 µg/mL (≈ 1.1 µM) in test [8]; not above 0.06 µg/mL against Entercoccus faecium 2041; not above 0.06 µg/mL in test [10]; not above 0.06 µg/mL in test [11]; 4 µg/mL (≈ 2.2 µM) in test [12]. Moreover, the MIC in [13] was not above 0.06 µg/mL; in test [14], not above 0.06 µg/mL; in [15], 0.5 µg/mL (≈ 0.275 µM); in test [16] it was 1 µg/mL (≈ 0.551 µM); in [17], not above 0.06 µg/mL; in test [18], not above 0.06 µg/mL. For the same molecule, the MIC (in the test with Entercoccus faecium 276; in test [19]) was not above 0.06 µg/mL in each case. Also, in test [3], the “mean geometric MIC, Vancomycin Sensitive Strains” value stood at 0.76 µg/mL. Further, the “mean geometric MIC, Vancomycin Resistant Strains” value in test [9] came out at 19 µg/mL.

`CN[C@H](CC(C)C)C(=O)N[C@H]1C(=O)N[C@@H](CC(N)=O)C(=O)N[C@H]2C(=O)N[C@H]3C(=O)N[C@H](C(=O)N[C@H](C(=O)O)c4cc(O)cc(O)c4-c4cc3ccc4O)[C@H](O[C@H]3C[C@](C)(N)[C@@H](O)[C@H](C)O3)c3ccc(c(Cl)c3)Oc3cc2cc(c3O[C@@H]2O[C@H](CO)[C@@H](O)[C@H](O)[C@H]2O[C@H]2C[C@](C)(NCc3ccc(Oc4ccc(C(C)(C)C)cc4)cc3)[C@@H](O)[C@H](C)O2)Oc2ccc(cc2Cl)[C@H]1O` [Compound 96]: the MIC in [1] was 1 µg/mL (≈ 0.546 µM); in [2], 1 µg/mL (≈ 0.546 µM); in [4], not above 0.06 µg/mL; with Entercoccus faecium 180 it was 0.5 µg/mL (≈ 0.273 µM); in [5], 2 µg/mL (≈ 1.09 µM); in [6] it was 2 µg/mL (≈ 1.09 µM). Further, the minimum inhibitory concentration (MIC) was 2 µg/mL (≈ 1.09 µM) in test [7]; 2 µg/mL (≈ 1.09 µM) in [8]; 1 µg/mL (≈ 0.546 µM) against Entercoccus faecium 2041; 2 µg/mL (≈ 1.09 µM) in [10]; not above 0.06 µg/mL in test [11]; 1 µg/mL (≈ 0.546 µM) in test [12]. The MIC was 2 µg/mL (≈ 1.09 µM) in test [13]; not above 0.06 µg/mL in test [14]; 1 µg/mL (≈ 0.546 µM) in [15]; 1 µg/mL (≈ 0.546 µM) in [16]; 0.25 µg/mL (≈ 0.137 µM) in [17]; 1 µg/mL (≈ 0.546 µM) in test [18]. The MIC came to 0.5 µg/mL (≈ 0.273 µM) with Entercoccus faecium 276 and 1 µg/mL (≈ 0.546 µM) in [19]. Moreover, in [3], the “mean geometric MIC, Vancomycin Sensitive Strains” value is 0.11 µg/mL. Moreover, the “mean geometric MIC, Vancomycin Resistant Strains” value in test [9] was found to be 1.4 µg/mL.

For the molecule `CNC(CC(C)C)C(=O)NC1C(=O)NC(CC(N)=O)C(=O)NC2C(=O)NC3C(=O)NC(C(=O)NC(C(=O)O)c4cc(O)cc(O)c4-c4cc3ccc4O)C(OC3CC(C)(N)C(O)C(C)O3)c3ccc(c(Cl)c3)Oc3cc2cc(c3OC2OC(CO)C(O)C(O)C2OC2CC(C)(NCc3ccc(N=Nc4ccccc4)cc3)C(O)C(C)O2)Oc2ccc(cc2Cl)C1O` (centres unmarked) [Compound 210], the minimum inhibitory concentration (MIC) is 0.125 µg/mL (≈ 0.07 µM) in test [1]; not above 0.06 µg/mL in [2]; not above 0.06 µg/mL in test [4]; not above 0.06 µg/mL against Entercoccus faecium 180; 1 µg/mL (≈ 0.56 µM) in test [5]; 1 µg/mL (≈ 0.56 µM) in test [6]. In addition, the MIC in [7] was 1 µg/mL (≈ 0.56 µM); in test [8] it was 0.25 µg/mL (≈ 0.14 µM); against Entercoccus faecium 2041, not above 0.06 µg/mL; in [10] it was not above 0.06 µg/mL; in [11] it was not above 0.06 µg/mL; in test [12], 0.5 µg/mL (≈ 0.28 µM). The MIC in test [13] was 0.5 µg/mL (≈ 0.28 µM); in [14], not above 0.06 µg/mL; in test [15], 2 µg/mL (≈ 1.12 µM); in [16], not above 0.06 µg/mL; in test [17] it was not above 0.06 µg/mL; in test [18] it was 1 µg/mL (≈ 0.56 µM). Also, the MIC against Entercoccus faecium 276 was not above 0.06 µg/mL; in [19] it was 1 µg/mL (≈ 0.56 µM). For the same molecule, the “mean geometric MIC, Vancomycin Sensitive Strains” value in test [3] turned out to be 0.041 µg/mL. Also, the “mean geometric MIC, Vancomycin Resistant Strains” value in test [9] worked out at 0.84 µg/mL.

Consider `CCCOC(c1ccccc1)c1ccc(CNC2(C)CC(OC3C(Oc4c5cc6cc4Oc4ccc(cc4Cl)C(OC4CC(C)(N)C(O)C(C)O4)C4NC(=O)C(NC(=O)C6NC(=O)C(CC(N)=O)NC(=O)C(NC(=O)C(CC(C)C)NC)C(O)c6ccc(c(Cl)c6)O5)c5ccc(O)c(c5)-c5c(O)cc(O)cc5C(C(=O)O)NC4=O)OC(CO)C(O)C3O)OC(C)C2O)cc1` (centres unmarked) [Compound 128], for which the MIC is 2 µg/mL (≈ 1.09 µM) in test [1]; 1 µg/mL (≈ 0.546 µM) in test [2]; not above 0.06 µg/mL in [4]; 1 µg/mL (≈ 0.546 µM) against Entercoccus faecium 180; 1 µg/mL (≈ 0.546 µM) in test [5]; 2 µg/mL (≈ 1.09 µM) in [6]. Further, the minimum inhibitory concentration (MIC) in test [7] is 2 µg/mL (≈ 1.09 µM); in [8], 1 µg/mL (≈ 0.546 µM); with Entercoccus faecium 2041, 0.5 µg/mL (≈ 0.273 µM); in [10], 1 µg/mL (≈ 0.546 µM); in test [11], not above 0.06 µg/mL; in [12], 1 µg/mL (≈ 0.546 µM). Moreover, the minimum inhibitory concentration (MIC) is 0.5 µg/mL (≈ 0.273 µM) in [13]; 0.5 µg/mL (≈ 0.273 µM) in [14]; 4 µg/mL (≈ 2.18 µM) in test [15]; 2 µg/mL (≈ 1.09 µM) in test [16]; 0.125 µg/mL (≈ 0.0683 µM) in [17]; 1 µg/mL (≈ 0.546 µM) in [18]. For the same molecule, the MIC (against Entercoccus faecium 276; in test [19]) was 1 µg/mL (≈ 0.546 µM) throughout. In addition, the “mean geometric MIC, Vancomycin Sensitive Strains” value in test [3] was determined as 0.11 µg/mL. Also, in [9], the “mean geometric MIC, Vancomycin Resistant Strains” value turned out to be 2.0 µg/mL.
